Source: patent US7078403B1, “Antiviral agents” (Biota Scientific Management Pty Ltd., priority 1999, dated 2006)

Experiments:
HRV type 1A = assay: Inhibition of viral cytopathic effect (CPE), visual scoring or neutral red, HRV type 1A in MRC-5 cells; type: cell-based, human rhinovirus; conditions: for Activity on Rhinovirus Type 1A EC50: HRV type 1A in MRC-5 cells, CPE inhibition; for Activity on Rhinovirus Type 1A SI: selectivity index = CC50 or MTC divided by EC50, HRV type 1A, MRC-5 cells
HRV type 2 = assay: Inhibition of viral cytopathic effect (CPE), visual scoring or neutral red, HRV type 2 in KB cells; type: cell-based, human rhinovirus; conditions: for Activity on Rhinovirus Type 2 EC50: HRV type 2 in KB cells, CPE inhibition; for Activity on Rhinovirus Type 2 SI: selectivity index = CC50 or MTC divided by EC50, HRV type 2, KB cells
[1] = system: human embryo lung (MRC-5) cells; assay: Cytotoxicity (CC50 or MTC) in uninfected MRC-5 cells; conditions: unit not given

SMILES | Activity on Rhinovirus Type 1A EC50 (HRV type 1A) [µg/mL] | Activity on Rhinovirus Type 1A SI (HRV type 1A) | Activity on Rhinovirus Type 2 EC50 (HRV type 2) [µg/mL] | Activity on Rhinovirus Type 2 SI (HRV type 2) | Activity on Rhinovirus Type 1A MTC [1]
CCON=C(C)c1ccc(OCCC2CCN(c3ccc(Cl)nn3)CC2)cc1 [Compound 3] | 0.005 | 1841 | 0.01 | >100 | >10.0
CCON=C(C)c1ccc(OCCC2CCN(c3ccc(C)nn3)CC2)cc1 [Compound 4] | 0.39 | 25.55 | 0.5 | >2 | 10.00
CCON=C(C)c1cc(OC)c(OCCC2CCN(c3ccc(Cl)nn3)CC2)c(OC)c1 [Compound 6] | 0.06 | >167.09 | 0.1 | >500 | >10.00
CON=C(C)c1ccc(OCCC2CCN(c3ccc(C)nn3)CC2)cc1 [Compound 9] | <0.0032 | >312 | 0.08 | >13 | >1
CCC(=NOC)c1ccc(OCCC2CCN(c3ccc(Cl)nn3)CC2)cc1 [Compound 10] | 0.0142 | >70.54 | 0.4 | >3 | >1
CC(C)ON=Cc1ccc(OCCC2CCN(c3ccc(Cl)nn3)CC2)cc1 [Compound 12] | 0.00355 | >273.7 | 0.02 | 50 | >1
N#CCON=Cc1ccc(OCCC2CCN(c3ccc(Cl)nn3)CC2)cc1 [Compound 14] | <0.0032 | >312 | 0.046 | 13 | >1
Clc1ccc(N2CCC(CCOc3ccc(C=NOCc4ccccc4)cc3)CC2)nn1 [Compound 15] | >1.0 |  | 0.9 | <1 | >1.0
CON=Cc1cccc(OCCC2CCN(c3ccc(Cl)nn3)CC2)c1 [Compound 16] | <0.0032 | >312 | <0.001 | >1000 | >1
CON=Cc1ccc(OC)c(OCCC2CCN(c3ccc(Cl)nn3)CC2)c1 [Compound 17] | 0.00612 | >163.2 | >1 |  | >1
CCON=Cc1cccc(OCCCC2CCN(c3ccc(C)nn3)CC2)c1 [Compound 98] | 0.255 | >3 |  |  | >1
C=CCON=Cc1cccc(OCCCC2CCN(c3ccc(C)nn3)CC2)c1 [Compound 99] | 0.205 | >4 |  |  | >1
CON=Cc1ccc(OCCCC2CCN(c3cccnn3)CC2)cc1 [Compound 102] | 0.059 | >17 |  |  | >1
CCON=Cc1ccc(OCCCC2CCN(c3cccnn3)CC2)cc1 [Compound 103] | 0.266 | >3 |  |  | >1
CON=Cc1cccc(OCCCC2CCN(c3cccnn3)CC2)c1 [Compound 105] | 0.126 | >8 |  |  | >1
C=CCON=Cc1cccc(OCCCC2CCN(c3cccnn3)CC2)c1 [Compound 107] | 0.062 | >16 |  |  | >1
CON=C(C)c1cc(C)c(OCCCc2cc(C)no2)c(C)c1 [Compound 109] | 0.053 | >18.8 |  |  | >1
C#CCON=Cc1cc(C)c(OCCCc2cc(C)no2)c(C)c1 [Compound 119] | 0.046 | >21.4 |  |  | >1

SMILES | Activity on Rhinovirus Type 1A EC50 (HRV type 1A) [µg/mL] | Activity on Rhinovirus Type 1A SI (HRV type 1A) | Activity on Rhinovirus Type 2 EC50 (HRV type 2) [µg/mL] | Activity on Rhinovirus Type 2 SI (HRV type 2) | Activity on Rhinovirus Type 1A MTC [1]
CCON=Cc1cc(C)c(OCCCCCCc2cc(C)no2)c(C)c1 [Compound 120] | 0.04 | >20 |  |  | >1
CCON=Cc1cc(C)c(OCCCCCCCc2cc(C)no2)c(C)c1 [Compound 121] | 0.05 | >16 |  |  | >1
CCON=Cc1cc(C)c(OCCCCCc2cc(C)no2)c(C)c1 [Compound 122] | 0.181 | >5 |  |  | >1
CCON=Cc1cc(C)c(OCCCCc2cc(C)no2)c(C)c1 [Compound 123] | 0.060 | >16 |  |  | >1
Cc1cc(CCCOc2c(C)cc(C=NOCC(F)(F)F)cc2C)on1 [Compound 124] | 0.719 | >1 |  |  | >1
CCON=Cc1ccc(OCCC2CCN(c3ccc(CO)nn3)CC2)cc1 [Compound 129] | 0.048 | >20 |  |  | >1
CCCON=Cc1cccc(OCCN2CCN(c3ccc(C)nn3)CC2)c1 [Compound 136] | 0.598 | >1 |  |  | >1
CCON=Cc1cc(C)c(OCCCc2cc(C3CC3)no2)c(C)c1 [Compound 137] | 0.054 | >18 |  |  | >1
CCON=Cc1cc(C)c(OCCCCc2cc(CC)no2)c(C)c1 [Compound 138] | 0.07 | >15 |  |  | >1
CCCc1cc(CCCCOc2c(C)cc(C=NOCC)cc2C)on1 [Compound 139] | 0.19 | >5 |  |  | >1
CON=Cc1ccc(OCCC2CCCN(c3ccc(Cl)nn3)C2)cc1 (stereo not drawn) [Compound 140] | 0.016 | >61 |  |  | >1
C=CCON=Cc1ccc(OCCC2CCCN(c3ccc(Cl)nn3)C2)cc1 (stereo not drawn) [Compound 141] | 0.166 | >6 |  |  | >1
CCON=Cc1ccc(OCCC2CCCN(c3ccc(Cl)nn3)C2)cc1 (stereo not drawn) [Compound 142] | 0.055 | >18 |  |  | >1
Cc1ccc(N2CCC(CCOc3ccc(C=NOCCF)cc3)CC2)nn1 [Compound 143] | 0.020 | >50 |  |  | >1
CCO/N=C/c1ccc(OCCCCCNc2ccc(Cl)nn2)cc1 [Compound 147] | 0.194 | >5 |  |  | >1
CCO/N=C/c1ccc(OCCC2CCN(c3cnc4cc(Cl)ccc4n3)CC2)cc1 [Compound 210] | 3.96 | >2.5 |  |  | >10
CCO/N=C/c1ccc(Oc2cnc3cc(Cl)ccc3n2)cc1 [Compound 211] | 0.07 | >151 |  |  | >10
